From US4252898A
≈ marks a conversion by molar mass, not a printed value.

Key:
[1] = test system: Fusobacterium symbiosum 1470; assay: Susceptibility of anaerobic bacterial isolates, agar dilution; format: cell-based; conditions: 27 hours incubation
S. aureus 3055 = assay: Therapy in experimental mouse infections; conditions: Staphylococcus aureus, 3055, in Mus musculus
[2] = test system: Bacteroides fragilis spp. fragilis 111; assay: Susceptibility of anaerobic bacterial isolates, agar dilution; format: cell-based; conditions: 27 hours incubation
S. faecalis X-66 = assay: Agar-dilution test; conditions: Enterococcus faecalis, X66
[3] = test system: Bacteroides fragilis ssp. fragilis 1877; assay: Susceptibility of anaerobic bacterial isolates, agar dilution; format: cell-based; conditions: 27 hours incubation
[4] = test system: Peptostreptococcus anaerobius 1428; assay: as above; format: cell-based; conditions: 27 hours incubation
S. pyogenes C203 [5] = assay: Disc-plate test; conditions: Streptococcus pyogenes, C203, read-out: Disc-Plate Zone Sizes
S. typhosa SA-12 = assay: Disc-plate test; conditions: read-out: Disc-Plate Zone Sizes
[6] = test system: Peptococcus asaccharolyticus 1302; assay: Susceptibility of anaerobic bacterial isolates, agar dilution; format: cell-based; conditions: Peptoniphilus asaccharolyticus, 27 hours incubation
[7] = test system: Peptostreptococcus intermedium 1264; assay: as above; format: cell-based; conditions: 27 hours incubation
[8] = test system: Actinomyces israelii W855; assay: as above; format: cell-based; conditions: 27 hours incubation
[9] = test system: Bacteroides melaninogenicus 1856/28; assay: as above; format: cell-based; conditions: Prevotella intermedia, 27 hours incubation
[10] = test system: Fusobacterium necrophorum 6054A; assay: as above; format: cell-based; conditions: 27 hours incubation
S. pyogenes C203 [11] = assay: Therapy in experimental mouse infections; conditions: Streptococcus pyogenes
Peptococcus prevoti 1281 = assay: Susceptibility of anaerobic bacterial isolates, agar dilution; format: cell-based; conditions: 27 hours incubation
E. coli Ec-14 = assay: Disc-plate test; conditions: Escherichia coli, EC14, read-out: Disc-Plate Zone Sizes
S. aureus 3.55 = assay: Agar-dilution test; conditions: Staphylococcus aureus
S. pneumoniae I [12] = assay: Therapy in experimental mouse infections; conditions: Streptococcus pneumoniae
[13] = test system: Clostridium septicum 1128; assay: Susceptibility of anaerobic bacterial isolates, agar dilution; format: cell-based; conditions: 27 hours incubation
K. pneumoniae KL-14 = assay: Disc-plate test; conditions: Klebsiella pneumoniae, KL14, read-out: Disc-Plate Zone Sizes
P rettgeri PR-2 = assay: Disc-plate test; conditions: read-out: Disc-Plate Zone Sizes
[14] = test system: Clostridium perfringens 81; assay: microbe, parasite or virus in culture; format: cell-based; conditions: Clostridium perfringens, 81, 27 h
Group D Streptococcus = assay: Disc-plate test; conditions: read-out: Disc-Plate Zone Sizes
gram positive bacteria = assay: Antibacterial activity in standard test procedures
S. Aureus (3 strains) = assay: Disc-plate test; conditions: Staphylococcus aureus, read-out: Disc-Plate Zone Sizes
[15] = test system: Eubacterium aerofaciens 1235; assay: Susceptibility of anaerobic bacterial isolates, agar dilution; format: cell-based; conditions: Collinsella aerofaciens, 27 hours incubation
[16] = test system: Bacteroides vulgatis 1211; assay: as above; format: cell-based; conditions: 27 hours incubation
[17] = test system: Bacteroides fragilis ssp. fragilis 1936B; assay: as above; format: cell-based; conditions: 27 hours incubation
[18] = test system: Bacteroides fragilis ssp. thetaiotaoimicron 1438; assay: as above; format: cell-based; conditions: 27 hours incubation
S. pneumoniae I [19] = assay: Disc-plate test; conditions: Streptococcus pneumoniae, read-out: Disc-Plate Zone Sizes
[20] = test system: Propionibacterium acnes 79; assay: Susceptibility of anaerobic bacterial isolates, agar dilution; format: cell-based; conditions: Cutibacterium acnes, 27 hours incubation
S. aureus 3074 = assay: Agar-dilution test; conditions: Staphylococcus aureus
[21] = test system: Bacteroides corrodens 1874; assay: Susceptibility of anaerobic bacterial isolates, agar dilution; format: cell-based; conditions: Eikenella corrodens, 27 hours incubation
[22] = test system: Bacteroides melaninogenicus 2736; assay: as above; format: cell-based; conditions: 27 hours incubation

Which results are given for `CCC1OC(=O)CC(O)C(C)C(OC2OC(C)C(OC3CCC(O)C(C)O3)C(N(C)C)C2O)C(CCO)CC(C)C(=O)C=CC2(C)OC2C1C` (stereo not shown)?
MIC [1]: 128 µg/mL (≈ 179 µM); ED50 (S. aureus 3055): > 70 mg/kg; MIC [2]: 64 µg/mL (≈ 89.6 µM); MIC (S. faecalis X-66): 16 µg/mL (≈ 22.4 µM); MIC [3]: 64 µg/mL (≈ 89.6 µM); MIC [4]: 16 µg/mL (≈ 22.4 µM); zone of inhibition at 300 µg/disc (S. pyogenes C203 [5]): 24.2 mm; zone of inhibition at 300 µg/disc (S. typhosa SA-12): 8.8 mm; MIC [6]: 8 µg/mL (≈ 11.2 µM); MIC [7]: 8 µg/mL (≈ 11.2 µM); MIC [8]: 8 µg/mL (≈ 11.2 µM); MIC [9]: 64 µg/mL (≈ 89.6 µM); MIC [10]: 128 µg/mL (≈ 179 µM); ED50 (S. pyogenes C203 [11]): > 70 mg/kg; MIC (Peptococcus prevoti 1281): > 64 µg/mL; zone of inhibition at 300 µg/disc (E. coli Ec-14): 14 mm; MIC (S. aureus 3.55): 32 µg/mL (≈ 44.8 µM); ED50 (S. pneumoniae I [12]): > 70 mg/kg; MIC [13]: 16 µg/mL (≈ 22.4 µM); zone of inhibition at 300 µg/disc (K. pneumoniae KL-14): 11.3 mm; zone of inhibition at 300 µg/disc (P rettgeri PR-2): 8.6 mm; MIC [14]: 16 µg/mL (≈ 22.4 µM); zone of inhibition at 300 µg/disc (Group D Streptococcus): 22.5 mm; antibacterial activity (gram positive bacteria): exhibit antibacterial activity, particularly against gram positive bacteria; zone of inhibition at 300 µg/disc (S. Aureus (3 strains)): 27 mm; MIC [15]: 8 µg/mL (≈ 11.2 µM); MIC [16]: 32 µg/mL (≈ 44.8 µM); MIC [17]: 64 µg/mL (≈ 89.6 µM); MIC [18]: 16 µg/mL (≈ 22.4 µM); zone of inhibition at 300 µg/disc (S. pneumoniae I [19]): 36 mm; MIC [20]: 1 µg/mL (≈ 1.4 µM); MIC (S. aureus 3074): > 128 µg/mL; MIC [21]: 32 µg/mL (≈ 44.8 µM); MIC [22]: 64 µg/mL (≈ 89.6 µM)
